Source: patent US6919314B1, “Bioactive whey protein hydrolysate” (New Zealand Dairy Board, priority 1998, dated 2005)
Marks after values point to notes of the source that are not given here. Ends that are not written are not given here. Peptide text beside a SMILES is read from it.

Biological target: T1, rabbit lung ACE (Oryctolagus cuniculus, UniProt P12822)
T1 construct: reagents from Sigma product 305-10) consisting of rabbit lung ACE; purchased Sigma Chemical Corporation, St Louis, Mo., USA 305-10; host or cells: rabbit lung (tissue-derived enzyme)
T1 sequence (P12822 34-1310): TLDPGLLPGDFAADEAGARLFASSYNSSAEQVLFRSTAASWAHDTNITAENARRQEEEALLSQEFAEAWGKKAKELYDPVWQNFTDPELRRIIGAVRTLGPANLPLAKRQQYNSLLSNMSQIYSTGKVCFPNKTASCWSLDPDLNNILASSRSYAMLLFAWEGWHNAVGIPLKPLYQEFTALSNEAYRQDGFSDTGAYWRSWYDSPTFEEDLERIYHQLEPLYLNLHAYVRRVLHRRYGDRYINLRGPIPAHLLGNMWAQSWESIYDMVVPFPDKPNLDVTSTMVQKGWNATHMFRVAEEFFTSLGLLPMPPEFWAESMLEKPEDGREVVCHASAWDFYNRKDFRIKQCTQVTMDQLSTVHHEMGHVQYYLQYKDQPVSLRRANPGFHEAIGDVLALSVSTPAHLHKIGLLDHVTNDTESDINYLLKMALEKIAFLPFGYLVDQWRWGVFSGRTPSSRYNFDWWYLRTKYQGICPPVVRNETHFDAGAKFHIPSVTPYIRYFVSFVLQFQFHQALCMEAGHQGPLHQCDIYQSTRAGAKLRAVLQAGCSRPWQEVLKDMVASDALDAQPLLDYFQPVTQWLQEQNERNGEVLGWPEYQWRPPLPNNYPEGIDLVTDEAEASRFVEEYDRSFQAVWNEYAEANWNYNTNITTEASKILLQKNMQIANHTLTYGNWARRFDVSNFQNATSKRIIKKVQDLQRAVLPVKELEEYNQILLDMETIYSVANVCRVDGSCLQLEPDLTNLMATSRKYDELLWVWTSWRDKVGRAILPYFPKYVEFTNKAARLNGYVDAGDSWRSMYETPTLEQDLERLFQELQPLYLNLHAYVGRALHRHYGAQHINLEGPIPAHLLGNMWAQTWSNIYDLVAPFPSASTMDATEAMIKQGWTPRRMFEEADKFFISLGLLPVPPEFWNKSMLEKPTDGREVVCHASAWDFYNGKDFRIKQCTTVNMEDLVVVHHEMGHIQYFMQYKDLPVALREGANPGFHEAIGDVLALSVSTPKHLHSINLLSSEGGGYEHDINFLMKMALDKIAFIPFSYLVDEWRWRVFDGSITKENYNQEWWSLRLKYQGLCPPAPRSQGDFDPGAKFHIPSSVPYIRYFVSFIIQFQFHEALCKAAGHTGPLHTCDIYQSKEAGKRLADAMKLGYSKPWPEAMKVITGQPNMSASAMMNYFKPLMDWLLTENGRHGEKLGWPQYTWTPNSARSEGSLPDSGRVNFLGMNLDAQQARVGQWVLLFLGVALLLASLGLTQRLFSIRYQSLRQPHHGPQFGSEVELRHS
Experiment: ACE-I activity using FAPGG as substrate (method of Cushman & Cheung)
Format: biochemical
Conditions: colorimetric substrate FAPGG; activity measured with that of another peptide of unknown origin
Procedure: A pH of 7.0 and an enzyme substrate ratio of 0.3% w/w was used for the hydrolysis. The hydrolysate was adjusted to pH 5.0 and heated at 65° C. for 30 min to inactivate the enzyme. […] ACE-I activities are expressed as the amount of material (g/L) needed to reduce the activity of the ACE-I enzyme by 50%.
Each fraction was lyophilised and the amount of peptide material present was measured gravimetrically. […] If a peptide inhibits ACE, the change in absorbance at 340 nm is reduced. […] The eluate was collected using the fraction collector set to collect 0.5 min fractions.
Samples from each fraction were analysed using an analytical reverse-phase HPLC column, and those fractions containing a single, identical peptide were pooled. Each pooled fraction was lyophilised and the weight of the peptide present was determined gravimetrically. The purified peptides were assayed for ACE-I activity as before and the IC50 was calculated for […] individual peptide.

| Activity (IC50 in mg L^−1) | Compound |
| --- | --- |
| 17^h mg L^−1 | Leu-Phe-Arg-Glu (LFRE; not fully specified; printed: Leu-Phe-Arg-Glu) [LFRQ, origin αs1-CN(136-139)] |

Same assay, conditions: purified peptide; colorimetric substrate FAPGG; read-out: Activity (IC50 in mg L^−1) (converted)

| IC50 [µM] | Compound |
| --- | --- |
| 10.2 | LHLPLP [LHLPLP, Leu-His-Leu-Pro-Leu-Pro] |
| 26.1 | ILKEKH [ILKEKH, Ile-Leu-Lys-Glu-Lys-His] |
| 59.7 | CC(C)C[C@H](N)C(=O)N[C@@H](Cc1ccccc1)C(=O)N[C@@H](CO)C(=O)N[C@@H](Cc1c[nH]cn1)C(=O)O [LFSH, Leu-Phe-Ser-His] (H-LFSH-OH; N-terminus and C-terminus assumed) |
| 71.8 | CSCC[C@H](N)C(=O)N[C@@H](CCCCN)C(=O)NCC(=O)O [MKG, Met-Lys-Gly] (H-Met-Lys-Gly-OH; N-terminus and C-terminus assumed) |
| 21.1 | ALPMH [ALPMH, Ala-Leu-Pro-Met-His] |
| 27.6 | LDIQK [LDIQK, Leu-Asp-Ile-Gln-Lys] |
| 29.7 | LIVTQ [LIVTQ, Leu-Ile-Val-Thr-Gln] |
| 52 | VTSTAV [VTSTAV, Val-Thr-Ser-Thr-Ala-Val] |
| 9.22 | LVYPFPGPIPNSLPQNIPP |

Tested on: spontaneously hypertensive rats (SHR/N)
Experiment: In vivo blood pressure in spontaneously hypertensive rats (tail cuff)
Design: species or system rat
Conditions: 30 mg/Kg bodyweight/day for 8 weeks, compared with the hydrolysate
From the text: The rat strain has been specifically selected for their development of high blood pressure on maturing, and is used extensively to monitor the effect of blood pressure lowering agents.
Eight week old rats were individually housed in plastic rat cages and kept in temperature controlled facilities throughout the trial. They had unlimited access to water and were fed commercial rat chow ad libitum. The test products were given orally as a single daily dose for 8 weeks during which time changes in blood pressure were monitored.

| Compound | systolic blood pressure |
| --- | --- |
| C[C@H](CS)C(=O)N1CCC[C@H]1C(=O)O [captopril] | effect of the hydrolysate was not as great as that of captopril |
